Entries after “also recorded” stand apart in the source; their conditions may differ.
How the values were obtained:
MAO-B [1] = target: T1, MAO-B (Homo sapiens, UniProt P27338); experiment: hMAO-B inhibition assay; format: biochemical
T1 construct: purchased Sigma-Aldrich
T1 sequence (P27338 1-520): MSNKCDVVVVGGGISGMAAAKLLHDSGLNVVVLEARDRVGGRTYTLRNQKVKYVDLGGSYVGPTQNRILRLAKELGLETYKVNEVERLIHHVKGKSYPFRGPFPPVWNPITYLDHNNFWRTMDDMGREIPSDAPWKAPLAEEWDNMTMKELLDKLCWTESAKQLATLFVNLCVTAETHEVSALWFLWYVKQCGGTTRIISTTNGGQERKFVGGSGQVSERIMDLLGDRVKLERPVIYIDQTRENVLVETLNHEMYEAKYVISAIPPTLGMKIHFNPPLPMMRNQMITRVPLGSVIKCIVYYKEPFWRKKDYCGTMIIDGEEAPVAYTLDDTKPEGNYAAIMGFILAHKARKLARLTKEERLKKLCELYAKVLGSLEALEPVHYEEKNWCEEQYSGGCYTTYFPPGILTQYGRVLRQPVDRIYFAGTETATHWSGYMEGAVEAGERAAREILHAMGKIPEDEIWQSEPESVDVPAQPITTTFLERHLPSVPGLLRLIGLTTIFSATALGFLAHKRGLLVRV
Method: (§1) The reagents and enzymes (Human MAO-B and Human MAO-A) applied in this experiment were purchased from Sigma-Aldrich. According to the manuals, all components (substrate solution and enzyme solution) are diluted and placed aside for use. The detailed process has been mentioned in our early work[34].

MAO-B [2] = target: T1, MAO-B; experiment: MAO-B kinetic study (Michaelis-Menten, Lineweaver-Burk, p-tyramine substrate); format: biochemical
Method: Figure 5. Kinetic study and cytotoxicity assay of compound 17d. […] The Cytotoxicity effect of compound 17d on PC-12 cells (C).
(§2) To examine the interaction mode of 17d on MAO-B, kinetic studies were carried out. From the Lineweaver–Burk plots (Figure 5(B)), we observed that 17d operated by a non-competitive inhibition mechanism. […] Subsequently, the potential toxic effect of 17d was investigated on pheochromocytoma (PC-12) cells.
To further examine the interaction mode of compound 17d, the type of enzyme inhibition was determined by Michealis–Menten kinetic experiments. The catalytic rates of MAO‐B enzyme were measured at six different concentrations of substrate p‐tyramine (0.05, 0.1, 0.25, 0.5, 1.0, and 1.25 mM) in the absence and in the three different concentrations (33.3, 100, and 300 nM) of compound 17d. The corresponding dose‐response curves and the nonlinear/linear regression analysis were performed using GraphPad Prism version 6 software (Graphpad Software Inc., La Jolla, CA).

Human MAO-A = target: T2, Human MAO-A (Homo sapiens, UniProt P21397); experiment: hMAO-A inhibition assay; format: biochemical
T2 construct: purchased Sigma-Aldrich
T2 sequence (P21397 1-527): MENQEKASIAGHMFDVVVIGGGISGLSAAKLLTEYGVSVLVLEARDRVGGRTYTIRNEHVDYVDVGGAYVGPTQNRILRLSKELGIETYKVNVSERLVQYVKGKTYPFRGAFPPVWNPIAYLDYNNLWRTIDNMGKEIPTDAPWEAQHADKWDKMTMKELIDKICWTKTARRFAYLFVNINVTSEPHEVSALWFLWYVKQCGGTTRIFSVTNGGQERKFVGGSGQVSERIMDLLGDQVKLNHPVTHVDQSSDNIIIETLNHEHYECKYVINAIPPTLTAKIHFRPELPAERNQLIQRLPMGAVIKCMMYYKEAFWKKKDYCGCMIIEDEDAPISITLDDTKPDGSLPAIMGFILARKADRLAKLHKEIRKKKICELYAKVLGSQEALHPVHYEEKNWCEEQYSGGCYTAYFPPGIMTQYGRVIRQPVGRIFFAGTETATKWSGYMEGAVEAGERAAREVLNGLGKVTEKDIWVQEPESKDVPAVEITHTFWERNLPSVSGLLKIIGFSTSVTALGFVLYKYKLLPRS
Method: Further, the inhibitory activity of compounds against hMAO-A isoform was tested and calculated as a selectivity index [Selectivity index (SI): IC50 (hMAO-A)/IC50 (hMAO-B)].
as §1

PC-12 cells = experiment: Cytotoxicity test (MTT); format: cell-based; conditions: 24 h, up to 50 µM
Method: as §2
Neural pheochromocytoma-derived PC-12 cells at the log phase of their growth cycle (8 × 10^4 cells/ml) were added to each well (100 μl/well) and incubated for 24 h at 37 °C in a humidified atmosphere of 5% CO2. Then three replicates at various concentrations of the samples (3.13, 6.25, 12.5, 25, and 50 μM) were added to each well (100 μl/well). After incubating for 24 h, 20 μl of MTT solution (5 mg/ml/well) was added to each culture medium, which was then incubated for another 4 h. Then DMSO was added to each well (150 μl/well). After 10 min at room temperature, the OD values of each well were measured on a Microplate Reader (BioTek ELx800, Winooski, VT) at the wavelength of 490 nm.

[3] = tested on: scopolamine-induced cognitive impairment mice model; experiment: Morris water maze test, scopolamine-induced memory impairment; format: in vivo, ICR mice
Excerpt: To further explore the in vivo anti-AD effect of compound 17d on the scopolamine-induced cognitive impairment mice model, the Morris Water Maze experiment was selected; data are shown in Figure 7 and Table 5.
Figure 7.
Adult female ICR mice (weight 20–25 g) were obtained from the Zhejiang Academy of Medical Sciences (Hangzhou, China). Scopolamine hydrobromide and Pargyline were purchased from Aladdin Reagents. Memantine was purchased from Energy Chemical. All experiments were approved by the Laboratory Animals Ethical Committee of the Zhejiang University of Technology (No. 20211210103). In this test, mice were prepared as clarified and clear injections, consisting of 20% (2-Hydroxypropyl)-β-cyclodextrin, 10% DMSO, and PBS. […] Mice were administered at a frequency of once a day over 15 d with a fixed dosing schedule. The body weight of mice was measured during the experiment.
After eliminating environmental stress, the behavioural test was performed over the next five days. The mice were trained to find the platform (10 cm diameter) in the circular light-avoidance pool (120 cm diameter and 60 cm height) filled with water (40 cm, depth), which was described in detail in our previous study. All mice received at least one training session daily in four quadrants for four consecutive days before the probe trial of finding the platform within 120 s. Recordings were made with SMART version 3.0 (Panlab, Spain) and processed by Graphpad Prism version 6 software (Graphpad Software Inc., La Jolla, CA, USA).

COc1ccc2c(=O)c(CNCCn3ccc(=O)c(O)c3C)coc2c1 [Compound 17d, 3-Hydroxy-1–(2-(((7-methoxy-4-oxo-4H-chromen-3-yl)methyl)amino)ethyl)-2-methylpyridin-4(1H)-one]
IC50 (MAO-B [1]): 67 ± 4.3 nM | SI: hMAO-B selectivity index = IC50 (hMAO-A)/IC50 (hMAO-B) (MAO-B [1]): 11.0 | inhibition at 0.1 µM (MAO-B [1]; hMAO-B, 100 nM, read-out: Inhibitory rate (%, 100 nM)): 48.9 ± 1.4% | inhibition mechanism (MAO-B [2]; Lineweaver–Burk plots): non-competitive | Ki (MAO-B [2]; p-tyramine substrate, GraphPad Prism, read-out: inhibition constant (Ki)): 74.7 nM | IC50 (Human MAO-A): 739 ± 21.9 nM | cytotoxicity (PC-12 cells): no cytotoxicity; also recorded: noncytotoxic | body weight of mice ([3]; 15 mg/kg once a day, after ten days): increased after ten days | scopolamine-induced cognitive impairment ([3]; 15 mg/kg, mice, Morris water maze): significantly ameliorated | Entries to target ([3]; 15 mg/kg, scopolamine 15 mg/kg, ICR mice, mean ± SEM, n = 15): 3.3 ± 0.3 | melting point: 252 to 254 °C

Source: paper PMC9762789, “Chromone-based monoamine oxidase B inhibitor with potential iron-chelating activity for the treatment of Alzheimer’s disease” (Journal of Enzyme Inhibition and Medicinal Chemistry, 2022)
